Experimental data as given in patent US6653300B2, “Pyrazole compounds useful as protein kinase inhibitors” (Vertex Pharmaceuticals Incorporated, priority 2000, dated 2003).

Legend:
GSK-3β (AA 1-420) = biological target: T1, GSK-3β (AA 1-420) (Homo sapiens, UniProt P49841); experiment: Ki determination for the inhibition of GSK-3 (coupled enzyme system); assay type: biochemical; details: 20 μM ATP, 20 nM GSK-3β, 30° C.
T1 construct: GSK-3β (AA 1-420)
Protocol: Compounds were screened for their ability to inhibit GSK-3β (AA 1-420) activity using a standard coupled enzyme system (Fox et al. (1998) Protein Sci. 7, 2249). Reactions were carried out in a solution containing 100 mM HEPES (pH 7.5), 10 mM MgCl2, 25 mM NaCl, 300 μM NADH, 1 mM DTT and 1.5% DMSO. Final substrate concentrations in the assay were 20 μM ATP (Sigma Chemicals, St Louis, Mo.) and 300 μM peptide (HSSPHQS (PO3H2) EDEEE, American Peptide, Sunnyvale, Calif.). Reactions were carried out at 30° C. and 20 nM GSK-3β. Final concentrations of the components of the coupled enzyme system were 2.5 mM phosphoenolpyruvate, 300 μM NADH, 30 μg/ml pyruvate kinase and 10 μg/ml lactate dehydrogenase.
An assay stock buffer solution was prepared containing all of the reagents listed above with the exception of ATP and the test compound of interest. The assay stock buffer solution (175 μl) was incubated in a 96 well plate with 5 μl of the test compound of interest at final concentrations spanning 0.002 μM to 30 μM at 30° C. for 10 min. […] The reaction was initiated by the addition of 20 μl of ATP (final concentration 20 μM). Rates of reaction were obtained using a Molecular Devices Spectramax plate reader (Sunnyvale, Calif.) over 10 min at 30° C. The Ki values were determined from the rate data as a function of inhibitor concentration.

T1 sequence (P49841 whole entry, the tested form may be a part): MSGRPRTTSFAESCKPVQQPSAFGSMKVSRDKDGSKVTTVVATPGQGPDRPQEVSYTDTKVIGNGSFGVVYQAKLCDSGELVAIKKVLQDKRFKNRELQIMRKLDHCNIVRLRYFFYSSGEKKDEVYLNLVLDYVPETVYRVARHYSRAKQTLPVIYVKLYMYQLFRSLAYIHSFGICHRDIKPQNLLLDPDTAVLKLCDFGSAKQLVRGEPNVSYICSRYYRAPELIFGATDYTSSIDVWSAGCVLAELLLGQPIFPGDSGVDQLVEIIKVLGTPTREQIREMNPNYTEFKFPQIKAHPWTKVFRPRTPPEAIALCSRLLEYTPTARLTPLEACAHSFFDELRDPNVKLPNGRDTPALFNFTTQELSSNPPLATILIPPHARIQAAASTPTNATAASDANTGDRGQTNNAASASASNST

SMILES	Ki (GSK-3β (AA 1-420))	melting point
Cc1cc(Nc2cc(-c3ccccc3)nc(Sc3ccc(NC(=O)C4CC4)cc3)n2)n[nH]1 [IIIa-16, [2-(4-Cyclopropanecarbonylamino-phenylsulfanyl)-6-phenylpyrimidin-4-yl]-(5-methyl-2H-pyrazol-3-yl)-amine]	1000 to 7000 nM	253 to 255 °C
CCCS(=O)(=O)Nc1ccc(Sc2nc(Nc3cc(C)n[nH]3)cc(-c3ccccc3)n2)cc1 [IIIa-17, (5-Methyl-2H-pyrazol-3-yl)-{6-phenyl-2-[4-(propane-1-sulfonylamino)-phenylsulfanyl]-pyrimidin-4-yl}-amine]	< 100 nM	232 to 235 °C
CCS(=O)(=O)Nc1ccc(Sc2nc(Nc3cc(C)[nH]n3)cc(-c3ccccc3)n2)cc1 [IIIa-18, [2-(4-Ethanesulfonylamino-phenylsulfanyl)-6-phenyl-pyrimidin-4-yl]-(5-methyl-2H-pyrazol-3-yl)-amine]	< 100 nM	251 to 254 °C
Cc1cc(Nc2cc(-c3ccccc3)nc(Sc3ccc(NC(=O)CC(C)C)cc3)n2)n[nH]1 [IIIa-20, [2-(4-Isobutanecarbonylamino-phenyl-sulfanyl)-6-phenyl-pyrimidin-4-yl]-(5-methyl-2H-pyrazol-3-yl)-amine]		241 to 243 °C
COCc1cc(Nc2cc(C)[nH]n2)nc(Sc2ccc(C(=O)OC)cc2)n1 [IIIa-39, [2-(4-Methoxycarbonyl-phenyl-sulfanyl)-6-methoxymethyl-pyrimidin-4-yl]-(5-methyl-2H-pyrazol-3-yl)-amine]		204 to 205 °C
c1ccc(-c2cc(Nc3cc(C4CC4)[nH]n3)nc(NCc3cccnc3)n2)cc1 [IIIc-5, (5-Cyclopropyl-2H-pyrazol-3-yl)-[6-phenyl-2-(pyridin-3-ylmethylamino)-pyrimidin-4-yl]-amine]		191 to 193 °C
Cc1cc(Nc2nc(Sc3nc4ccccc4[nH]3)nc3ccccc23)n[nH]1 [IIa-19, [2-(Benzimidazol-2-ylsulfanyl)-quinazolin-4-yl]-(5-methyl-2H-pyrazol-3-yl)-amine]		192 to 196 °C
c1ccc2c(Sc3nc(Nc4cc(C5CC5)n[nH]4)c4ccccc4n3)cccc2c1 [IIa-37, (5-Cyclopropyl-2H-pyrazol-3-yl)-[2-(naphthalen-1-ylsulfanyl)-quinazolin-4-yl]-amine]		271 to 273 °C
CC(=O)Nc1ccc(Sc2nc(Nc3cc(C)n[nH]3)c3cccc(F)c3n2)cc1 [IIa-78, [2-(4-Acetamidophenylsulfanyl)-8-fluoro-quinazolin-4-yl]-(5-methyl-2H-pyrazol-3-yl)-amine]		257 to 259 °C
Cc1cc(Nc2nc(N(CCO)c3ccccc3)nc3ccccc23)n[nH]1 [IIc-1, {2-[(2-Hydroxyethyl)phenylamino]-quinazolin-4-yl}-(5-methyl-2H-pyrazol-3-yl)-amine]		217 °C
Cc1cc(Nc2nc(Nc3ccc4cn[nH]c4c3)nc3ccccc23)n[nH]1 [IIc-9, [2-(1H-Indazol-6-ylamino)-quinazolin-4-yl]-(5-methyl-2H-pyrazol-3-yl)-amine]		> 250 °C
c1ccc(C2CC2c2nc(Nc3n[nH]c4ccccc34)c3ccccc3n2)cc1 (centres unmarked) [IId-16, (1H-Indazol-3-yl)-[2-(2-phenyl-cyclopropyl)-quinazolin-4-yl]-amine]	100 to 1000 nM	
Fc1cccc2c(Nc3nc(C4CC4c4ccccc4)nc4ccccc34)n[nH]c12 (centres unmarked) [IId-17, (7-Fluoro-1H-indazol-3-yl)-[2-(2-phenyl-cyclopropyl)-quinazolin-4-yl]-amine]	100 to 1000 nM	
Fc1ccc2[nH]nc(Nc3nc(C4CC4c4ccccc4)nc4ccccc34)c2c1 (centres unmarked) [IId-18, (5-Fluoro-1H-indazol-3-yl)-[2-(2-phenyl-cyclopropyl)-quinazolin-4-yl]-amine]	100 to 1000 nM	
Cc1cc(Nc2nc(C3CC3c3ccccc3)nc3ccccc23)n[nH]1 (centres unmarked) [IId-19, (5-Methyl-1H-pyrazol-3-yl)-[2-(2-phenyl-cyclopropyl)-quinazolin-4-yl]-amine]	< 100 nM	

The remaining lines, values ahead:

Ki (GSK-3β (AA 1-420))	melting point	SMILES
< 100 nM	126 to 129 °C	COC(=O)c1cccc(Sc2nc(Nc3cc(C4CC4)[nH]n3)cc(-c3ccccc3)n2)c1 [IIIa-2, (5-Cyclopropyl-2H-pyrazol-3-yl)-[2-(3-methoxycarbonyl-phenylylsulfanyl)-6-phenylpyrimidin-4-yl]-amine]
< 100 nM	248 to 250 °C	c1ccc2cc(Sc3nccc(Nc4cc(C5CC5)[nH]n4)n3)ccc2c1 [IIIa-3, (5-Cyclopropyl-2H-pyrazol-3-yl)-[2-(naphthalen-2-ylsulfanyl)-pyrimidin-4-yl]-amine]
100 to 1000 nM	> 270 °C	Cc1nc(Sc2ccc3ccccc3c2)nc(Nc2cc(C3CC3)[nH]n2)c1C [IIIa-4, (5-Cyclopropyl-2H-pyrazol-3-yl)-[5,6-dimethyl-2-(naphthalen-2-ylsulfanyl)-pyrimidin-4-yl]-amine]
100 to 1000 nM	197 °C	Cc1cnc(Sc2ccc3ccccc3c2)nc1Nc1cc(C2CC2)[nH]n1 [IIIa-5, (5-Cyclopropyl-2H-pyrazol-3-yl)-[5-methyl-2-(naphthalen-2-ylsulfanyl)-pyrimidin-4-yl]-amine]
< 100 nM	232 °C	Cc1cc(Nc2cc(C3CC3)[nH]n2)nc(Sc2ccc3ccccc3c2)n1 [IIIa-6, (5-Cyclopropyl-2H-pyrazol-3-yl)-[6-methyl-2-(naphthalen-2-ylsulfanyl)-pyrimidin-4-yl]-amine]
100 to 1000 nM	118 to 120 °C	c1ccc2cc(Sc3nc(Nc4cc(C5CC5)[nH]n4)cc(N4CCOCC4)n3)ccc2c1 [IIIa-7, (5-Cyclopropyl-2H-pyrazol-3-yl)-[6-(morpholin-4-yl)-2-(naphthalen-2-ylsulfanyl)-pyrimidin-4-yl]-amine]
100 to 1000 nM	113 to 115 °C	CN1CCN(c2cc(Nc3cc(C4CC4)[nH]n3)nc(Sc3ccc4ccccc4c3)n2)CC1 [IIIa-8, (5-Cyclopropyl-2H-pyrazol-3-yl)-[6-(1-methylpiperazin-4-yl)-2-(naphthalen-2-ylsulfanyl)-pyrimidin-4-yl]-amine]
	148 to 152 °C	Cc1cc(Nc2cc(-c3c(C)cccc3C)nc(Sc3ccc4ccccc4c3)n2)n[nH]1 [IIIa-9, [6-(2,6-Dimethylphenyl)-2-(naphthalen-2-ylsulfanyl)-pyrimidin-4-yl]-(5-methyl-2H-pyrazol-3-yl)-amine]
100 to 1000 nM	211 to 214 °C	Cc1cc(Nc2cc(-c3ccccc3C)nc(Sc3ccc4ccccc4c3)n2)n[nH]1 [IIIa-10, [6-(2-Methylphenyl)-2-(naphthalen-2-ylsulfanyl)-pyrimidin-4-yl]-(5-methyl-2H-pyrazol-3-yl)-amine]
	237 to 239 °C	Cc1cc(Nc2cc(-c3ccccc3)nc(Sc3ccc4ccccc4c3)n2)n[nH]1 [IIIa-12, (5-Methyl-2H-pyrazol-3-yl)-[2-(naphthalen-2-ylsulfanyl)-6-phenyl-pyrimidin-4-yl]-amine]
	267 to 269 °C	c1ccc(Nc2nc(Nc3cc(C4CC4)[nH]n3)cc(-c3ccccc3)n2)cc1 [IIIc-2, (5-Cyclopropyl-2H-pyrazol-3-yl)-(6-phenyl-2-phenylamino-pyrimidin-4-yl)-amine]
	267 to 270 °C	Cc1cccc(Nc2nc(Nc3cc(C4CC4)[nH]n3)cc(-c3ccccc3)n2)c1 [IIIc-3, (5-Cyclopropyl-2H-pyrazol-3-yl)-[2-(3-methylphenylamino)-6-phenyl-pyrimidin-4-yl]-amine]
